Laboratory results as given in publication PMC12068008 (International Journal of Molecular Sciences, 2024).
Read-outs that look alike come from different tables or passages of the source.

Columns and labels:
[1] = DPPH radical scavenging assay; conditions: for IC50: 30 min incubation, 25 °C; for antioxidative ability (DPPH): 0.01, 0.1 and 1 mM, 30 min
Procedure: DPPH (2,2-diphenyl-1-picrylhydrazyl) radical scavenging assay was used to assess free-radical scavenging activity of synthesized compounds. Initially, 1 × 10^−4 M working solution of DPPH was prepared, and 350 µL was added to 350 µL of the solution of each compound. The final concentrations of the compounds (Q, 2a, and 2b) in the samples were 1 × 10^−3 M, 1 × 10^−4 M, and 1 × 10^−5 M. The control included ethanol only and DPPH–ethanol solution without compounds. The mixtures were incubated at 25 °C in the dark for 30 min. After incubation, the absorbance of the samples at 517 nm was measured in duplicate by using a UV/Vis spectrophotometer (Lambda 35, Perkin Elmer, Waltham, MA, USA). The DPPH radical scavenging ability was calculated using the following equation:(1) Antioxidative activity(%)=Acontrol−Asample/Acontrol×100% where Asample and Acontrol represent the absorbance at 517 nm of the sample and control, respectively. All samples were analysed in duplicate.

physchem = type: physicochemical; conditions: shake flask, n-octanol/water, 25 °C, 1 × 10^−4 M; read-out: logP, experimentally obtained
Procedure: To measure the lipophilicity (expressed as the partition coefficient) of the synthesized compounds and their constituents, using a “shake-flask” method, a two-phase system composed of n-octanol and deionized water was used. The stock solutions of the compounds were diluted with water to the concentration of 1 × 10^−4 M, and this solution was used for further investigation. […] The concentration of the compounds was calculated from their extinction coefficient at 260 nm that was previously determined.

Na^+, K^+-ATPase = conditions: cited from earlier work
eqBuChE = eqBuChE (Equus caballus, UniProt P81908); assay: BuChE inhibition (Ellman's procedure); type: biochemical; conditions: for inhibition at 100 µM: read-out: Percentage Inhibition BuChE
Chain of eqBuChE (P81908 whole entry): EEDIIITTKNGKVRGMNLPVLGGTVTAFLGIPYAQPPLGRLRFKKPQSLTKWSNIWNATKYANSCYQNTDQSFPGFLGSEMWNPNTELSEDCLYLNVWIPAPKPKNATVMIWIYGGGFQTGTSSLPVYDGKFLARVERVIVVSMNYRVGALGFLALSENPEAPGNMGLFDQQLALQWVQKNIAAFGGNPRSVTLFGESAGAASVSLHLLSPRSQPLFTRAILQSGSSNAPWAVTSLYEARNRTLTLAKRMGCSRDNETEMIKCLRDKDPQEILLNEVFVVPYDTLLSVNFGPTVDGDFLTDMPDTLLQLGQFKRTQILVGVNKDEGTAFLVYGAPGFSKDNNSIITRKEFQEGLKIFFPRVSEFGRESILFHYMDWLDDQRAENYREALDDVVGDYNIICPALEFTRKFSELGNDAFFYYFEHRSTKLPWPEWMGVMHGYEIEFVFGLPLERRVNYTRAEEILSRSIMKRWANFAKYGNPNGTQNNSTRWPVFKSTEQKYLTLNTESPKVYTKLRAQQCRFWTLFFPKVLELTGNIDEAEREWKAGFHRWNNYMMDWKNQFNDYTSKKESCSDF
Procedure: (§1) The abilities of compounds to inhibit AChE and BuChE activity were determined following Ellman’s procedure, with AChI and BuChI as the enzyme substrate, respectively, and DTNB as a chromogenic reagent. AChE’s and BuChE’s working solutions were prepared at 20 mM TRIS and deionized water, respectively. AChI and BuChI solutions were prepared in deionized water. A 0.01 M DTNB solution was prepared with 0.1 M phosphate buffer (pH 7) containing 0.15% (w/v) sodium bicarbonate. Stock solutions (10 mM) of investigated compounds were prepared daily by dissolving solid compounds in DMSO. The reaction mixture containing phosphate buffer, DTNB, enzyme, and compound was preincubated 30 min at 37 °C. After the preincubation time, the enzyme reaction was initiated by adding appropriate substrate and left to incubate for 6 min. After incubation, 0.1 M SDS was added to stop the reaction. Absorbance measurements were performed using a UV/Vis spectrophotometer (Lambda 35, Perkin Elmer), measuring absorbance at 412 nm. A blank assay, containing all components except the enzyme, was used to account for non-enzyme reactions. The control solution contained all components except the inhibitor. All experiments were conducted in triplicate, and the results are expressed as the mean percentage enzyme activity compared to the control value. IC50 values were determined graphically using Origin 9 Microsoft Windows.

eeAChE = eeAChE (Electrophorus electricus, UniProt O42275); assay: biochemical; conditions: read-out: Percentage Inhibition AChE
Chain of eeAChE (O42275 24-633): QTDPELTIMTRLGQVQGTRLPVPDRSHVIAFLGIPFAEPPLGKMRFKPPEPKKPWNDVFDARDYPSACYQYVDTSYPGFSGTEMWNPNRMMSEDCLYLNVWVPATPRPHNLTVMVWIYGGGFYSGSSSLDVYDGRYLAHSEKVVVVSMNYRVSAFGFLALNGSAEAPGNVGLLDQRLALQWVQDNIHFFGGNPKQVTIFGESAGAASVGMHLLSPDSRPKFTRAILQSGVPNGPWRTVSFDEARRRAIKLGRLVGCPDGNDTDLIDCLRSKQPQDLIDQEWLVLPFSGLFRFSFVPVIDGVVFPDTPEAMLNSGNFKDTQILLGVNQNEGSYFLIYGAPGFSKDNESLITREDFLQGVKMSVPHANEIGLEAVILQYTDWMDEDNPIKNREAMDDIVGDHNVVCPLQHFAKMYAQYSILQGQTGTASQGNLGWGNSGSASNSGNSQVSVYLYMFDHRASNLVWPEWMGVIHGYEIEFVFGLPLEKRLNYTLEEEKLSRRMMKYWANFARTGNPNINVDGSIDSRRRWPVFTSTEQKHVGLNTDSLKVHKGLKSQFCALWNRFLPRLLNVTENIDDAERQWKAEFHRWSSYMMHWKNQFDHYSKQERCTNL
Procedure: as §1, with “A 0.01 M DTNB solution was prepared with 0.1 M phosphate buffer (pH 7) containing 0.15% (w/v) sodium bicarbonate.” left out, “Absorbance measurements were performed using a UV/Vis spectrophotometer (Lambda 35, Perkin Elmer), measuring absorbance at 412 nm.” left out

MDA-MB-231 cells = assay: SRB assay, MDA-MB-231 cells; type: cell-based; conditions: Homo sapiens, MDA-MB-231, 72 h, read-out: IC50 MDA-231
Procedure: (§2) All cell lines were cultured in Dulbecco’s Modified Eagle’s Medium (DMEM) with 4500 mg/L glucose and L-glutamine (Capricorn Scientific, Ebsdorfergrund, Germany), supplemented with 10% foetal bovine serum (PAN-Biotech, Aidenbach, Germany), 10,000 U/mL penicillin, and 10 mg/mL streptomycin solution (Capricorn Scientific) under standard conditions at 37 °C in a humidified 5% CO2 atmosphere (ESCO, Lifesciences Group, Singapore).
(§3) Cells were seeded on a 96-well plate (Thermo Fisher Scientific, Waltham, MA, USA) at 2 × 10^3 cells per well in DMEM medium. For the analysis of the concentration- and time-dependent effect of the analysed compounds, cell monolayers were treated 24 h after seeding with concentrations 1 × 10^−6, 1 × 10^−5, and 1 × 10^−4 M for 24, 48, or 72 h. Cell viability was detected using sulforhodamine B (SRB) assay, based on the staining of cellular proteins. The assay was performed according to the procedure described by Skehan et al.. The cells were fixed with 10% trichloroacetic acid (TCA, CARLO ERBA Reagents GmbH, Emmendingen, Germany) for 1 h at 4 °C, washed with water, and stained for 15 min with 0.4% SRB (Sigma-Aldrich Chemie GmbH, Steinheim, Germany) in 1% acetic acid. The unbound SRB dye was rinsed with 1% acetic acid, while the protein-bound dye was extracted with a 10 mM Tris base (Sigma-Aldrich). […] The results were expressed as a percentage of the control, where the cell growth of the control is set to 100%. […] The selectivity index (SI) was determined according to the following formula:(2) SI=IC50 for fibroblast cell line/IC50 for tumour cell line
(§4) The assay was performed two times in 4 replicates for every experimental group. The statistical significance of differences between treated and untreated cells was estimated by the independent Student’s t-test, with the level of significance set at p < 0.05.

HeLa cells = assay: SRB assay, HeLa cells; type: cell-based; conditions: Homo sapiens, HeLa, 72 h, read-out: IC50 HeLa
Procedure: as §2, §3, §4

MRC-5 cells = assay: SRB assay, MRC-5 cells; type: cell-based; conditions: Homo sapiens, MRC5, 72 h, read-out: IC50 MRC
Procedure: as §2, with “Two human breast cancer cell lines, MDA-MB-231 (HTB-26) and MDA-MB-468 (HTB-132), human cervical cancer cell line HeLa (CCL-2), and MRC-5 (CCL-171) fibroblasts were purchased from the American Type Culture Collection (ATCC, Manassas, VA, USA). All” for “All”
Cells were seeded on a 96-well plate (Thermo Fisher Scientific, Waltham, MA, USA) at 2 × 10^3 cells per well in DMEM medium. For the analysis of the concentration- and time-dependent effect of the analysed compounds, cell monolayers were treated 24 h after seeding with concentrations 1 × 10^−6, 1 × 10^−5, and 1 × 10^−4 M for 24, 48, or 72 h. Cell viability was detected using sulforhodamine B (SRB) assay, based on the staining of cellular proteins. The assay was performed according to the procedure described by Skehan et al.. The cells were fixed with 10% trichloroacetic acid (TCA, CARLO ERBA Reagents GmbH, Emmendingen, Germany) for 1 h at 4 °C, washed with water, and stained for 15 min with 0.4% SRB (Sigma-Aldrich Chemie GmbH, Steinheim, Germany) in 1% acetic acid. The unbound SRB dye was rinsed with 1% acetic acid, while the protein-bound dye was extracted with a 10 mM Tris base (Sigma-Aldrich). The absorbance was measured at 550 nm with a reference wavelength of 690 nm in a microplate reader (Wallac, VICTOR2 1420 Multilabel counter, PerkinElmer, Turku, Finland). The results were expressed as a percentage of the control, where the cell growth of the control is set to 100%. […] The selectivity index (SI) was determined according to the following formula:(2) SI=IC50 for fibroblast cell line/IC50 for tumour cell line […]

MDA-MB-468 cells = assay: SRB assay, MDA-MB-468 cells; type: cell-based, human; conditions: Homo sapiens, MDA-MB-468, 72 h, read-out: IC50 MDA-468
Procedure: as §2, with “Two human breast cancer cell lines, MDA-MB-231 (HTB-26) and MDA-MB-468 (HTB-132), human cervical cancer cell line HeLa (CCL-2), and MRC-5 (CCL-171) fibroblasts were purchased from the American Type Culture Collection (ATCC, Manassas, VA, USA). All” for “All”
Cells were seeded on a 96-well plate (Thermo Fisher Scientific, Waltham, MA, USA) at 2 × 10^3 cells per well in DMEM medium. For the analysis of the concentration- and time-dependent effect of the analysed compounds, cell monolayers were treated 24 h after seeding with concentrations 1 × 10^−6, 1 × 10^−5, and 1 × 10^−4 M for 24, 48, or 72 h. Cell viability was detected using sulforhodamine B (SRB) assay, based on the staining of cellular proteins. The assay was performed according to the procedure described by Skehan et al.. The cells were fixed with 10% trichloroacetic acid (TCA, CARLO ERBA Reagents GmbH, Emmendingen, Germany) for 1 h at 4 °C, washed with water, and stained for 15 min with 0.4% SRB (Sigma-Aldrich Chemie GmbH, Steinheim, Germany) in 1% acetic acid. The unbound SRB dye was rinsed with 1% acetic acid, while the protein-bound dye was extracted with a 10 mM Tris base (Sigma-Aldrich). The absorbance was measured at 550 nm with a reference wavelength of 690 nm in a microplate reader (Wallac, VICTOR2 1420 Multilabel counter, PerkinElmer, Turku, Finland). The results were expressed as a percentage of the control, where the cell growth of the control is set to 100%. IC50, defined as the concentration that caused a 50% loss of cell growth, was calculated by non-linear regression analysis with the ED50plus v1.0 software. The selectivity index (SI) was determined according to the following formula:(2) SI=IC50 for fibroblast cell line/IC50 for tumour cell line
as §4

SMILES	IC50 [1] [µM]	antioxidative ability (DPPH) [1]	logP at 30 min (physchem)	IC50 (Na^+, K^+-ATPase; literature value ref 35) [µM]	inhibition at 100 µM (eqBuChE) [%]	inhibition at 100 µM (eeAChE) [%]	IC50 (MDA-MB-231 cells) [µM]	IC50 (HeLa cells) [µM]	IC50 (MRC-5 cells) [µM]	IC50 (Na^+, K^+-ATPase; literature value ref 36) [µM]	IC50 (MDA-MB-468 cells) [µM]	IC50 (eqBuChE) [µM]
O=C1O[C@H]([C@@H](O)CO)C(O)=C1O [Ascorbic acid]	0.62	–	–	–	–	–	–	–	–	–	–	–
c1ccc2c(c1)CCNC2 [Compound 1a, 1,2,3,4-tetrahydroisoquinoline, reference compound]	–	did not show antioxidative ability	1.4	25000	2	2	–	–	–	–	–	–
COc1cc2c(cc1OC)CNCC2 [Compound 1b, 6,7-dimethoxy-1,2,3,4-tetrahydroisoquinoline, reference compound]	–	did not show antioxidative ability	1.14	–	17.7	14.1	–	–	–	–	–	–
O=c1c(O)c(-c2ccc(O)c(O)c2)oc2cc(O)cc(O)c12 [Quercetin, reference compound]	19.3	–	–	–	72	58	76.6 ± 3.8	15.1 ± 2.67	10.4 ± 0.52	46.3	65.9 ± 3.3	22.1
